Patent US5091403A, “Sulfinyl imidazole derivatives and antiulcer agents containing the same” (Nippon Chemiphar Co., Ltd., priority 1989, dated 1992)
Read-outs that look alike come from different tables or passages of the source.

Columns and labels:
[1] = tested on: secretion of gastric acid; experiment: Inhibitory action against the secretion of gastric acid (Test II), Heidenhain pouch dogs, histamine, intravenous; assay type: in vivo, dog (male beagle); settings: 3 mg/kg, intravenously, one hour after initiation of histamine; 30 min post-drug vs pre-drug
Protocol: (§1) Heidenhain pouch dogs produced from male beagle dogs were fasted. To the dogs were then administered intra venously histamine hydrochloride (gastric juice secretion inducing agent) continuously at a dose of 160 μg/kg/hr. The gastric juice was collected at an interval of 15 min. to measure the amount of gastric juice and acid output to determine an acid secretion amount (mEq/15 min).
The test compound was intravenously administered to the dogs at one hour after the initiation of histamine ad ministration.
The inhibitory action was determined by comparing the acid secretion amount between pre-drug value (just before drug administration) and post-drug value (30 min. after drug administration).

H^+ +K^+ ATPase [2] = target: T1, H^+ +K^+ ATPase (Oryctolagus cuniculus, UniProt P27112); experiment: H^+ +K^+ ATPase Inhibitory Effects (Test 1); assay type: biochemical, rabbit; settings: 2 × 10^-4 M test compound; incubation at pH 6.0, 25 min, room temperature; read-out: value of H^+ +K^+ ATPase inhibitory action
T1 construct: a rabbit gastric mucosa were isolated; from tissue; host or cells: rabbit gastric mucosa; vesicles from a discontinuous Ficoll gradient
Protocol: Following the method of Forte et al (J. Applied Physiol., 32, 714.717 (1972)), a rabbit gastric mucosa were isolated. A vesicle containing H^+ +K^+ ATPase was prepared by centrifuging the cells in Ficoll of discontinuous density gradient according to G. Saccomani et al (Biochim. Biophys. Acta, 465. 311-330 (1977)). After the enzyme was incubated at room temperature for 25 min. in 0.5 ml of a solution which contained 5 mM of an imidazole buffer (pH 6.0) and 2 × 10^-4 M of 2-[2-(2-methoxyethylamino)benzylsulfinyl] imidazole (the compound of Example 1; the test compound), the mixture was heated to 37° C. The mixture was then allowed to stand for further 5 min. To the mixture was added 0.5 ml of a solution which contained 4 mM of magnesium chloride, 80 mM of an imidazole buffer (pH 7.4), 20 mM of potassium chloride and 4 mM of ATP. […] The inorganic phosphorus liberated was quantitatively determined by the method proposed by Taussky and Shorr (J. Biol. Chem., 202, 675-685 (1953)).
(§2) The above procedure was repeated except for not using potassium chloride to determine […] in the absence of potassium chloride. The desired K^+ -dependent ATPase activity was calculated by subtracting the ATPase activity value determined in the absence of KCl from the ATPase activity value determined in the presence of KCl.

[3] = tested on: secretion of gastric acid; experiment: Inhibitory action against the secretion of gastric acid (Test I), pylorus-ligated rats; assay type: in vivo, rat (male Donryu); settings: intraduodenally, 4 hours, vs vehicle control
Protocol: Male Donryu rats having a body weight of 200 to 250 g were fasted (while allowing free access to water) for 24 hrs. in accordance with the conventional method [Shay, H. et al, Gastroenterology, 5, 43.61 (1945)]. Under ether anesthesia the pylorus was ligated and 2-[2-(2-methoxyethylamino)benzylsulfinyl] imidazole (the compound of Example 1; the test compound) was administered intraduodenally. Four hours later, each rat was killed and the stomach was removed to collect the gastric juice. The inhibitory action was determined by comparing the acid output which was determined by titration to pH 7.0 with 0.1.N sodium hydroxide by means of an automatic titrator, with the corresponding value of a control rat prepared in the same manner except that a vehicle alone was administered.

H^+ +K^+ ATPase [4] = target: T1, H^+ +K^+ ATPase; experiment: H^+ +K^+ ATPase Inhibitory Effects (Test 2); assay type: biochemical, rabbit; settings: read-out: H^+ + K^+ ATPase inhibitory action IC50
Protocol: Following the method of Forte et al (J. Applied Physiol., 32, 714.717 (1972)), a rabbit gastric mucosa were isolated. A vesicle containing H^+ +K^+ ATPase was prepared by centrifuging the cells in Ficoll of discontinuous density gradient according to G. Saccomani et al (Biochim. Biophys. Acta, 465. 311-330 (1977)). After the enzyme was incubated at room temperature for 25 min. in 0.5 ml of a solution which contained 5 mM of an imidazole buffer (pH 6.0) and 2 × 10^-4 M of 2-[2-(2-methoxyethylamino)benzylsulfinyl] imidazole (the compound of Example 1; the test compound), the mixture was heated to 37° C. The mixture was then allowed to stand for further 5 min. To the mixture was added 0.5 ml of a solution which contained 4 mM of magnesium chloride, 80 mM of an imidazole buffer (pH 7.4), 20 mM of potassium chloride and 4 mM of ATP. The resulting mixture was reacted at 37° C. for 15 min. and 1 ml of 24 % trichloroacetic acid was then added to terminate the reaction. The inorganic phosphorus liberated was quantitatively determined by the method proposed by Taussky and Shorr (J. Biol. Chem., 202, 675-685 (1953)).
as §2
the enzyme was prepared in the same manner described in the above Test 1. After the enzyme was incubated at room temperature for 25 min. in 0.5 ml of a solution which contained 5 mM of an imidazole buffer (pH 6.0 or pH 7.4) and various concentrations of test compound, the mixture was heated to 37° C. The mixture was then allowed to stand for further 5 min. The value of H^+ +K^+ ATPase inhibitory action of each test compound was determined int he same manner described in the above Test 1.

[5] = tested on: secretion of gastric acid; experiment: Inhibitory action against the secretion of gastric acid (Test II, other experiment), Heidenhain pouch dogs, histamine, oral; assay type: in vivo, dog (male beagle); settings: orally, 2 hours before initiation of histamine, vs vehicle control dog
Protocol: as §1
At the other experiment, the test compounds mere administrated orally 2 hours before the initiation of histamine administration, and the inhibitory action was determined by comparing the acid secretion amount wit the corresponding amount of a control dog prepared in the same manner except that a vehicle alone was administered.

Acute toxicity test = assay type: in vivo, rat (male SD); settings: orally, observed for 2 days
Excerpt: Male SD rats having a body weight of about 190 g were orally administered with compound of Example 8. The rats were then observed for 2 days.

T1 sequence (P27112 whole entry): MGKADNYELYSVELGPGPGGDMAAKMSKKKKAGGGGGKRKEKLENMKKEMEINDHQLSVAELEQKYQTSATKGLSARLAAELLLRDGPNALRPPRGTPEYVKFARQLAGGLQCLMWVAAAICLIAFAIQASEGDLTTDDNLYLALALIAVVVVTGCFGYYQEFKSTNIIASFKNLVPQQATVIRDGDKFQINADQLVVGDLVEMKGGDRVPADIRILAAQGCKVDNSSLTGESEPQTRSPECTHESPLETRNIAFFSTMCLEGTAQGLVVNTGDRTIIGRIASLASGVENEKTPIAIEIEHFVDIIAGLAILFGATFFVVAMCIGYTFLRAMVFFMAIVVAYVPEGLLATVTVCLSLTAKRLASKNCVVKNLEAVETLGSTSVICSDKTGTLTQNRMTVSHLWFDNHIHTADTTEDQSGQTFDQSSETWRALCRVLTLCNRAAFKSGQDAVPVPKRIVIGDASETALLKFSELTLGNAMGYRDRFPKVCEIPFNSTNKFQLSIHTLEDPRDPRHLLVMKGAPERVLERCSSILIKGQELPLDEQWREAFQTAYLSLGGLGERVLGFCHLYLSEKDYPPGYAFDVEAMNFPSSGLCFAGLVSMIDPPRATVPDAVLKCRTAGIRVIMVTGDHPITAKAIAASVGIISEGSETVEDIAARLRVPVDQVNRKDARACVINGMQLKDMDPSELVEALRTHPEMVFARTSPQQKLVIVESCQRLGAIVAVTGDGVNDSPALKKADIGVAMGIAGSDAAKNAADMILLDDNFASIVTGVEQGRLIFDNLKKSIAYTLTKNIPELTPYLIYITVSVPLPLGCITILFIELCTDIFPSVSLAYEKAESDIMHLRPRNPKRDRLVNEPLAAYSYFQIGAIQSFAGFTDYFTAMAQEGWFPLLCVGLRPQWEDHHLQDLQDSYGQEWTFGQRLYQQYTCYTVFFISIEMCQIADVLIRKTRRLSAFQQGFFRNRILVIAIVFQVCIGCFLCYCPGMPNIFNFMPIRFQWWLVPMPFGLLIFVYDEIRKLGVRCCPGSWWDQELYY
T1 sequence (P18597 whole entry partner): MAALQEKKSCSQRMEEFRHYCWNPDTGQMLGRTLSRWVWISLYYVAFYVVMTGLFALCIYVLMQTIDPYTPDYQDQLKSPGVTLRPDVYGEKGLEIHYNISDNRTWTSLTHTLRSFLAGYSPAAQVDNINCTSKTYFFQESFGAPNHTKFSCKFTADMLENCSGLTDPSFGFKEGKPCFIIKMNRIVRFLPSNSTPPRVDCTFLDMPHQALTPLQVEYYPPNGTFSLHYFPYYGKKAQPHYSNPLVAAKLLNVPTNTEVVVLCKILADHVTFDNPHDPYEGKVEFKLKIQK

| SMILES | inhibition at 200 µM (H^+ +K^+ ATPase [2]) [%] | IC50 (H^+ +K^+ ATPase [4]; pH 6.0) [µM] | IC50 (H^+ +K^+ ATPase [4]; pH 7.4) [µM] | Suppressive action (acid secretion amount) [1] [%] | inhibitory action (acid output) ([3]; 10 mg/kg) [%] | inhibitory action (acid output) ([3]; 30 mg/kg) [%] | Suppressive action (acid secretion amount) [5] [%] | MLD (Acute toxicity test) |
| --- | --- | --- | --- | --- | --- | --- | --- | --- |
| COCCNc1ccccc1C[S+]([O-])c1ncc[nH]1 (stereo not shown) [Example 1, 2-[2-(2-methoxyethylamino)benzylsulfinyl]imidazole] | 73.1 | 43 | 180 | 89 | 75.9 | 94.5 | – | – |
| CC(C)OCCNc1ccccc1C[S+]([O-])c1ncc[nH]1 (stereo not shown) [Example 2, 2-[2-(2-isopropoxyethylamino)benzylsulfinyl]imidazole] | – | 46 | 190 | 97 | – | – | – | – |
| COCCCNc1ccccc1C[S+]([O-])c1ncc[nH]1 (stereo not shown) [Example 6, 2-[2-(3-methoxypropylamino)benzylsulfinyl]imidazole] | – | 13 | 60 | 92 | – | – | – | – |
| CCOCCNc1ccc(C)cc1C[S+]([O-])c1ncc[nH]1 (stereo not shown) [Example 7, 2-[2-(2-ethoxyethylamino)-5-methylbenzylsulfinyl] imidazole] | – | 18 | 94 | – | – | – | – | – |
| COCCNc1cc(C)c(OC)c(C)c1C[S+]([O-])c1ncc[nH]1 (stereo not shown) [Example 8, 2-[4,6-dimethyl-5-methoxy-2-(2-methoxyethylamino)benzylsulfinyl]imidazole] | – | 0.46 | 11 | – | – | – | 100 | ≥ 1,000 mg/kg |

Further compounds by falling IC50 (H^+ +K^+ ATPase [4]; pH 6.0), results first:

| inhibition at 200 µM (H^+ +K^+ ATPase [2]) [%] | IC50 (H^+ +K^+ ATPase [4]; pH 6.0) [µM] | IC50 (H^+ +K^+ ATPase [4]; pH 7.4) [µM] | SMILES | Suppressive action (acid secretion amount) [1] [%] | inhibitory action (acid output) ([3]; 10 mg/kg) [%] | inhibitory action (acid output) ([3]; 30 mg/kg) [%] | Suppressive action (acid secretion amount) [5] [%] | MLD (Acute toxicity test) |
| --- | --- | --- | --- | --- | --- | --- | --- | --- |
| – | 25 | > 300 | COCCNc1ccc(C)cc1C[S+]([O-])c1ncc[nH]1 (stereo not shown) [Example 3, 2-[2-(2-methoxyethylamino)-5-methylbenzylsulfinyl]imidazole] | 85 | – | – | 100 | – |
| – | 22 | 53 | CCOCCNc1ccccc1C[S+]([O-])c1ncc[nH]1 (stereo not shown) [Example 5, 2-[2-(2-ethoxyethylamino)benzylsulfinyl]imidazole] | 98 | – | – | – | – |
| – | 4.4 | 26 | COCCNc1cccc(C)c1C[S+]([O-])c1ncc[nH]1 (stereo not shown) [Example 4, 2-[2-(2-methoxyethylamino)-6-methylbenzylsulfinyl]imidazole] | 89 | – | – | – | – |
